The numbers were not newly measured in US7955790B2, “Skin substitutes with improved barrier function” (Stratatech Corporation, priority 2001, dated 2011), which cites them from elsewhere.

Read-outs that look alike come from different tables or passages of the source.

Series [1] deals with in vitro Cultures. Conditions: for Lipid Composition: substance added to in vitro cultures.
The subject of series [2] is in vitro Cultures. As to conditions: substance added to in vitro cultures.

For the compound `O=C1O[C@H]([C@@H](O)CO)C(O)=C1O` [Vitamin C, ascorbic acid], the “overall SC architecture” value in the series on in vitro Cultures [1] (skin equivalent cultures, electron microscopy) is “improved”. The “Lipid Composition” value with in vitro Cultures [1] is “Major”; with in vitro Cultures [1] (listed as vitamin C), “improved”. With “EGF: epidermal growth factor added to in vitro cultures”, the “Lipid Composition” value in the series with in vitro Cultures [1] was “High triglycerides”.

Turning to Estrogen, the “Barrier Function” value in the series on in vitro Cultures [2] is listed as “Accelerates”. With Vitamin D, the “Barrier Function” value with in vitro Cultures [2] (listed as vitamin D) is reported as “improvements in some studies”.

Turning to Vitamin E, the “Lipid Composition” value with in vitro Cultures [1] is recorded as “No effect”.
